Assay results published in patent US12152020B2, “Pesticidally active azole-amide compounds” (SYNGENTA PARTICIPATIONS AG, priority 2018, dated 2024).

What was measured:
Assay type in all cases: in vivo
[1] = test system: Plutella xylostella (Diamondback Moth); test: Example B14: Plutella xylostella, artificial diet in 96-well plates, eggs; details: 216 h, application rate of 500 ppm, 9 days after infestation
Description: Example B14: Plutella xylostella (Diamondback Moth)
96-well microtiter plates containing artificial diet were treated with aqueous test solutions, prepared from 10′000 ppm DMSO stock solutions, by a liquid handling robot. After drying, eggs (˜30 per well) were infested onto a netted lid which was suspended above the diet. The eggs hatch and L1 larvae move down to the diet. The samples were assessed for mortality 9 days after infestation.
The following compounds gave an effect of at least 80% average mortality at an application rate of 500 ppm: • P2, P3, P5, P6, P7, P9, P15, P16, P17, P18, P20, P22, P24, P25, P30, P31, P32, P33, P38.

[2] = test system: Diabrotica balteata (Corn Root Worm); test: Example B1: Diabrotica balteata, maize sprouts sprayed, L2 larvae; details: 96 h, application rate of 200 ppm, 4 days after infestation, in comparison to untreated samples, read-out: effect in at least one of the two categories (mortality or growth inhibition)
Description: Example B1: Diabrotica balteata (Corn Root Worm)
Maize sprouts placed onto an agar layer in 24-well microtiter plates were treated with aqueous test solutions prepared from 10′000 ppm DMSO stock solutions by spraying. After drying, the plates were infested with L2 larvae (6 to 10 per well). The samples were assessed for mortality and growth inhibition in comparison to untreated samples 4 days after infestation.
The following compounds gave an effect of at least 80% in at least one of the two categories (mortality or growth inhibition) at an application rate of 200 ppm: • P2, P3, P4, P5, P6, P7, P8, P14, P15, P16, P17, P18, P19, P20, P21, P22, P23, P24, P25, P27, P28, P29, P30, P31, P32, P33, P34, P35

[3] = test system: Chilo suppressalis (Striped Rice Stemborer); test: Example B4: Chilo suppressalis, artificial diet, L2 larvae; details: 144 h, application rate of 200 ppm, 6 days after infestation, in comparison to untreated samples, read-out: control in at least one of the categories (mortality, anti-feedant effect, or growth inhibition)
Description: Example B4: Chilo suppressalis (Striped Rice Stemborer)
24-well microtiter plates with artificial diet were treated with aqueous test solutions prepared from 10′000 ppm DMSO stock solutions by pipetting. After drying, the plates were infested with L2 larvae (6-8 per well). The samples were assessed for mortality, anti-feeding effect, and growth inhibition in comparison to untreated samples 6 days after infestation. Control of Chilo suppressalis by a test sample is given when at least one of the categories mortality, anti-feedant effect, and growth inhibition is higher than the untreated sample.

[4] = test system: Plutella xylostella (Diamond Back Moth); test: Example B5: Plutella xylostella, artificial diet in 24-well plates, eggs; details: 192 h, application rate of 200 ppm, 8 days after infestation, in comparison to untreated samples, read-out: effect in at least one of the two categories (mortality or growth inhibition)
Description: Example B5: Plutella xylostella (Diamond Back Moth)
24-well microtiter plates with artificial diet were treated with aqueous test solutions prepared from 10′000 ppm DMSO stock solutions by pipetting. After drying, Plutella eggs were pipetted through a plastic stencil onto a gel blotting paper and the plate was closed with it. The samples were assessed for mortality and growth inhibition in comparison to untreated samples 8 days after infestation.
The following compounds gave an effect of at least 80% in at least one of the two categories (mortality or growth inhibition) at an application rate of 200 ppm: • P1, P2, P3, P4, P5, P7, P8, P9, P14, P15, P16, P17, P18, P21, P22, P23, P24, P25, P27, P28, P29, P30, P31, P32, P33, P34, P35, P36

[5] = test system: Myzus persicae (Green Peach Aphid); test: Example B13: Myzus persicae, sucrose solution under Parafilm, 96-well; details: 120 h, application rate of 50 ppm, 5 days after infestation
From the text: Example B13: Myzus persicae (Green Peach Aphid)
Test compounds prepared from 10′000 ppm DMSO stock solutions were applied by a liquid handling robot into 96-well microtiter plates and mixed with a sucrose solution. Parafilm was stretched over the 96-well microtiter plate and a plastic stencil with 96 holes was placed onto the plate. Aphids were sieved into the wells directly onto the Parafilm. The infested plates were closed with a gel blotting card and a second plastic stencil and then turned upside down. The samples were assessed for mortality 5 days after infestation.

[6] = test system: Spodoptera littoralis (Egyptian Cotton Leaf Worm); test: Example B9: Spodoptera littoralis, cotton leaf discs sprayed, L1 larvae; details: foliar, 72 h, application rate of 200 ppm, five L1 larvae, 3 days after infestation, in comparison to untreated samples, read-out: control in at least one of the categories (mortality, anti-feedant effect, or growth inhibition)
Description: Example B9: Spodoptera littoralis (Egyptian Cotton Leaf Worm)
Cotton leaf discs were placed onto agar in 24-well microtiter plates and sprayed with aqueous test solutions prepared from 10′000 ppm DMSO stock solutions. After drying the leaf discs were infested with five L1 larvae. The samples were assessed for mortality, anti-feeding effect, and growth inhibition in comparison to untreated samples 3 days after infestation. Control of Spodoptera littoralis by a test sample is given when at least one of the categories mortality, anti-feedant effect, and growth inhibition is higher than the untreated sample.

[7] = test system: Myzus persicae (Green Peach Aphid); test: Example B8: Myzus persicae intrinsic activity, sucrose solution under Parafilm, 24-well; details: 120 h, test rate of 12 ppm, 5 days after infestation
From the text: Example B8: Myzus persicae (Green Peach Aphid): Intrinsic Activity
Test compounds prepared from 10′000 ppm DMSO stock solutions were applied by pipette into 24-well microtiter plates and mixed with sucrose solution. The plates were closed with a stretched Parafilm. A plastic stencil with 24 holes was placed onto the plate and infested pea seedlings were placed directly on the Parafilm. The infested plate was closed with a gel blotting paper and another plastic stencil and then turned upside down. The samples were assessed for mortality 5 days after infestation.

CC(c1nc(-c2ccccc2)nn1-c1ncccn1)N(C)C(=O)c1cc(C(F)(F)F)cc(C(F)(F)F)c1 (stereo not shown) [Compound P6, N-methyl-N-[1-(5-phenyl-2-pyrimidin-2-yl-1,2,4-triazol-3-yl)ethyl]-3,5-bis(trifluoromethyl)benzamide]
≥ 80%: mortality at 500 ppm [1] | percent effect (mortality or growth inhibition) at 200 ppm [2]

CC#Cc1nc(C(C)N(C)C(=O)c2cc(C(F)(F)F)cc(C(F)(F)F)c2)n(-c2ncccn2)n1 (stereo not shown) [Compound P8, N-methyl-N-[1(5-prop-1-ynyl-2-pyrimidin-2-yl-1,2,4-triazol-3-yl)ethyl]-3,5-bis(trifluoromethyl) benzamide]
≥ 80%: percent control (mortality, anti-feedant effect or growth inhibition) at 200 ppm [3] | percent effect (mortality or growth inhibition) at 200 ppm [4] | percent effect (mortality or growth inhibition) at 200 ppm [2]

CC(c1nc(C#N)nn1-c1ncccn1)N(C)C(=O)c1cc(C(F)(F)F)cc(C(F)(F)F)c1 (stereo not shown) [Compound P9, N-[1-(5-cyano-2-pyrimidin-2-yl-1,2,4-triazol-3-yl)ethyl]-N-methyl-3,5-bis(trifluoromethyl) benzamide]
≥ 80%: percent effect (mortality or growth inhibition) at 200 ppm [4] | mortality at 500 ppm [1]

C=C(F)c1nc(C(C)N(C)C(=O)c2cc(C(F)(F)F)cc(C(F)(F)F)c2)n(-c2ncccn2)n1 (stereo not shown) [Compound P14, N-[1-[5-(1-fluorovinyl)-2-pyrimidin-2-yl-1,2,4-triazol-3-yl]ethyl]-N-methyl-3,5-bis(trifluoromethyl) benzamide]
≥ 80%: percent control (mortality, anti-feedant effect or growth inhibition) at 200 ppm [3] | percent effect (mortality or growth inhibition) at 200 ppm [4] | mortality at 50 ppm [5] | percent effect (mortality or growth inhibition) at 200 ppm [2]

CC(c1nc(S(=O)(=O)C(F)(F)F)nn1-c1ncccn1)N(C)C(=O)c1cc(C(F)(F)F)cc(C(F)(F)F)c1 (stereo not shown) [Compound P19, N-methyl-N-[1-[2-pyrimidin-2-yl-5-(trifluoromethylsulfonyl)-1,2,4-triazol-3-yl]ethyl]-3,5-bis(trifluoromethyl)benzamide]
≥ 80%: percent control (mortality, anti-feedant effect or growth inhibition) at 200 ppm [3] | percent effect (mortality or growth inhibition) at 200 ppm [2]

CC(c1nc(SC(F)(F)F)nn1-c1ncccn1)N(C)C(=O)c1cc(C(F)(F)F)cc(C(F)(F)F)c1 (stereo not shown) [Compound P20, N-methyl-N-[1-[2-pyrimidin-2-yl-5-(trifluoromethylsulfanyl)-1,2,4-triazol-3-yl]ethyl]-3,5-bis(trifluoromethyl)benzamide]
≥ 80%: percent control (mortality, anti-feedant effect or growth inhibition) at 200 ppm [6] | mortality at 500 ppm [1] | percent effect (mortality or growth inhibition) at 200 ppm [2]

C[C@H](NC(=O)c1cc(C(F)(F)F)cc(C(F)(F)F)c1)c1nc(OC(F)(F)F)nn1-c1ncccn1 [Compound P23, N-[(1S)-1-[2-pyrimidin-2-yl-5-(trifluoromethoxy)-1,2,4-triazol-3-yl]ethyl]-3,5-bis(trifluoromethyl)benzamide]
≥ 80%: percent control (mortality, anti-feedant effect or growth inhibition) at 200 ppm [6] | percent effect (mortality or growth inhibition) at 200 ppm [4] | percent effect (mortality or growth inhibition) at 200 ppm [2]

CC(c1nc(Br)nn1-c1ccccn1)N(C)C(=O)c1cc(C(F)(F)F)cc(C(F)(F)F)c1 (stereo not shown) [Compound P24, N-[1-[5-bromo-2-(2-pyridyl)-1,2,4-triazol-3-yl]ethyl]-N-methyl-3,5-bis(trifluoromethyl) benzamide]
≥ 80%: percent control (mortality, anti-feedant effect or growth inhibition) at 200 ppm [6] | percent effect (mortality or growth inhibition) at 200 ppm [4] | mortality at 500 ppm [1] | percent effect (mortality or growth inhibition) at 200 ppm [2]

CC(NC(=O)c1cc(C(F)(F)F)cc(C(F)(F)F)c1)c1nc(OCC(F)(F)F)nn1-c1ncccn1 (stereo not shown) [Compound P27, N-[1-[2-pyrimidin-2-yl-5-(2,2,2-trifluoroethoxy)-1,2,4-triazol-3-yl]ethyl]-3,5-bis(trifluoromethyl) benzamide]
≥ 80%: percent control (mortality, anti-feedant effect or growth inhibition) at 200 ppm [3] | percent control (mortality, anti-feedant effect or growth inhibition) at 200 ppm [6] | percent effect (mortality or growth inhibition) at 200 ppm [4] | percent effect (mortality or growth inhibition) at 200 ppm [2]

CC(NC(=O)c1cc(C(F)(F)F)cc(C(F)(F)F)c1)c1nc(-c2nnco2)nn1-c1ncccn1 (stereo not shown) [Compound P30, N-[1-[5-(1,3,4-oxadiazol-2-yl)-2-pyrimidin-2-yl-1,2,4-triazol-3-yl]ethyl]-3,5-bis(trifluoromethyl)benzamide]
≥ 80%: percent control (mortality, anti-feedant effect or growth inhibition) at 200 ppm [3] | percent control (mortality, anti-feedant effect or growth inhibition) at 200 ppm [6] | percent effect (mortality or growth inhibition) at 200 ppm [4] | mortality at 500 ppm [1] | mortality at 50 ppm [5] | mortality at 12 ppm [7] | percent effect (mortality or growth inhibition) at 200 ppm [2]

CC(NC(=O)c1cc(Br)cc(C(F)(F)F)c1)c1nc(Br)nn1-c1ncccn1 (stereo not shown) [Compound P31, 3-bromo-N-[1-(5-bromo-2-pyrimidin-2-yl-1,2,4-triazol-3-yl)ethyl]-5-(trifluoromethyl) benzamide]
≥ 80%: percent control (mortality, anti-feedant effect or growth inhibition) at 200 ppm [3] | percent control (mortality, anti-feedant effect or growth inhibition) at 200 ppm [6] | percent effect (mortality or growth inhibition) at 200 ppm [4] | mortality at 500 ppm [1] | mortality at 12 ppm [7] | percent effect (mortality or growth inhibition) at 200 ppm [2]

CC(NC(=O)c1cc(C(F)(F)F)cc(C(F)(F)F)c1)c1nc(Cl)nn1-c1ncccn1 (stereo not shown) [Compound P34, N-[1-(5-chloro-2-pyrimidin-2-yl-1,2,4-triazol-3-yl)ethyl]-3,5-bis(trifluoromethyl) benzamide]
≥ 80%: percent control (mortality, anti-feedant effect or growth inhibition) at 200 ppm [3] | percent control (mortality, anti-feedant effect or growth inhibition) at 200 ppm [6] | percent effect (mortality or growth inhibition) at 200 ppm [4] | mortality at 12 ppm [7] | percent effect (mortality or growth inhibition) at 200 ppm [2]

CC(=O)c1nc(C(C)NC(=O)c2cc(C(F)(F)F)cc(C(F)(F)F)c2)n(-c2ncccn2)n1 (stereo not shown) [Compound P35, N-[1-(5-acetyl-2-pyrimidin-2-yl-1,2,4-triazol-3-yl)ethyl]-3,5-bis(trifluoromethyl) benzamide]
≥ 80%: percent control (mortality, anti-feedant effect or growth inhibition) at 200 ppm [3] | percent control (mortality, anti-feedant effect or growth inhibition) at 200 ppm [6] | percent effect (mortality or growth inhibition) at 200 ppm [4] | percent effect (mortality or growth inhibition) at 200 ppm [2]
